Data reported in US10144947B2, “Method for detecting, identifying and enumerating micro-organisms in a porous support dry-impregnated with a dehydrated reaction medium” (BIOMÉRIEUX, priority 2014, dated 2018).
Where two headings read alike, the source gives them in different places.

Assays:
[1] = test system: Proteus mirabilis API 9406037; experiment: MIC of ciprofloxacin for the strain tested; assay type: cell-based; details: listed as Ci
[2] = test system: Proteus vulgaris API 8803017; experiment: Growth on MH2 or ChromID CPS3 with 1.5 mg/l ciprofloxacin, agar medium or impregnated porous support; assay type: cell-based; set-up: key to growth on MH2 Agar medium + 1.5 mg/l Ci / growth on Impregnation of porous support with MH2 + 1.5 mg/l Ci / growth on ChromID CPS3 Agar medium + 1.5 mg/l Ci / growth on Impregnation of porous support with ChromID CPS3 + 1.5 mg/l Ci: ++: grow; −−: do not grow
Experimental: (§1) To produce the agar media, a liter of water is added to the test specimen of the dry medium, i.e. 38.3 g for ChromID CPS3 and 41.57 g for the Muller Hinton 2 medium. The dry medium is then dissolved with magnetic stirring, brought to the boil then sterilized by autoclaving. […]. The whole thing is then mixed together in a Turbula®. The porous supports are then impregnated with the culture media powders as described above and sterilized by gamma radiation between 10 and 17 kGy.

[3] = test system: Pseudomonas aeruginosa API 7509005; experiment: as above; assay type: cell-based; set-up: key to growth on MH2 Agar medium + 1.5 mg/l Ci / growth on Impregnation of porous support with MH2 + 1.5 mg/l Ci / growth on ChromID CPS3 Agar medium + 1.5 mg/l Ci / growth on Impregnation of porous support with ChromID CPS3 + 1.5 mg/l Ci: ++: grow; −−: do not grow
Experimental: as §1

[4] = test system: Proteus mirabilis API 9406037; experiment: as above; assay type: cell-based; set-up: key to growth on MH2 Agar medium + 1.5 mg/l Ci / growth on Impregnation of porous support with MH2 + 1.5 mg/l Ci / growth on ChromID CPS3 Agar medium + 1.5 mg/l Ci / growth on Impregnation of porous support with ChromID CPS3 + 1.5 mg/l Ci: ++: grow; −−: do not grow
Experimental: as §1

[5] = test system: Pseudomonas aeruginosa API 9405063; experiment: as above; assay type: cell-based; set-up: key to growth on MH2 Agar medium + 1.5 mg/l Ci / growth on Impregnation of porous support with MH2 + 1.5 mg/l Ci / growth on ChromID CPS3 Agar medium + 1.5 mg/l Ci / growth on Impregnation of porous support with ChromID CPS3 + 1.5 mg/l Ci: ++: grow; −−: do not grow
Experimental: as §1

[6] = test system: Proteus mirabilis API 8803099; experiment: as above; assay type: cell-based; set-up: key to growth on MH2 Agar medium + 1.5 mg/l Ci / growth on Impregnation of porous support with MH2 + 1.5 mg/l Ci / growth on ChromID CPS3 Agar medium + 1.5 mg/l Ci / growth on Impregnation of porous support with ChromID CPS3 + 1.5 mg/l Ci: ++: grow; −−: do not grow
Experimental: as §1

[7] = test system: Proteus mirabilis API 8803080; experiment: as above; assay type: cell-based; set-up: key to growth on MH2 Agar medium + 1.5 mg/l Ci / growth on Impregnation of porous support with MH2 + 1.5 mg/l Ci / growth on ChromID CPS3 Agar medium + 1.5 mg/l Ci / growth on Impregnation of porous support with ChromID CPS3 + 1.5 mg/l Ci: ++: grow; −−: do not grow
Experimental: as §1

[8] = test system: Pseudomonas aeruginosa API 9410075; experiment: as above; assay type: cell-based; set-up: key to growth on MH2 Agar medium + 1.5 mg/l Ci / growth on Impregnation of porous support with MH2 + 1.5 mg/l Ci / growth on ChromID CPS3 Agar medium + 1.5 mg/l Ci / growth on Impregnation of porous support with ChromID CPS3 + 1.5 mg/l Ci: ++: grow; −−: do not grow
Experimental: as §1

[9] = test system: Pseudomonas aeruginosa API 9405061; experiment: as above; assay type: cell-based; set-up: key to growth on MH2 Agar medium + 1.5 mg/l Ci / growth on Impregnation of porous support with MH2 + 1.5 mg/l Ci / growth on ChromID CPS3 Agar medium + 1.5 mg/l Ci / growth on Impregnation of porous support with ChromID CPS3 + 1.5 mg/l Ci: ++: grow; −−: do not grow
Experimental: as §1

[10] = test system: Pseudomonas aeruginosa API 9410075; experiment: MIC of ciprofloxacin for the strain tested; assay type: cell-based; details: P. aeruginosa API 9410075; listed as Ci
[11] = test system: Pseudomonas aeruginosa API 7509005; experiment: MIC of ciprofloxacin for the strain tested; assay type: cell-based; details: P. aeruginosa API 7509005; listed as Ci
[12] = test system: Pseudomonas aeruginosa API 9405063; experiment: MIC of ciprofloxacin for the strain tested; assay type: cell-based; details: P. aeruginosa API 9405063; listed as Ci
[13] = test system: Proteus mirabilis API 8803080; experiment: MIC of ciprofloxacin for the strain tested; assay type: cell-based; details: listed as Ci
[14] = test system: Proteus vulgaris API 8803017; experiment: MIC of ciprofloxacin for the strain tested; assay type: cell-based; details: API8803017
[15] = test system: Pseudomonas aeruginosa API 9405061; experiment: MIC of ciprofloxacin for the strain tested; assay type: cell-based; details: P. aeruginosa API 9405061
[16] = test system: Proteus mirabilis API 8803099; experiment: MIC of ciprofloxacin for the strain tested; assay type: cell-based
[17] = test system: Pseudomonas aeruginosa ATCC 27853; experiment: MIC of imipenem for the strain used; assay type: cell-based; details: ATCC27853, Pseudomonas aeruginosa ATCC 27853, as stated in the conclusion
[18] = test system: E. coli ATCC 25922; experiment: Growth (colony count) on ChromID CPS3 with 1 mg/l imipenem, agar medium or impregnated porous support; assay type: cell-based, Escherichia coli
Experimental: (§2) To produce the agar media, a liter of water is added to the test specimen of the dry medium, i.e. 38.3 g for ChromID CPS3. The dry medium is then dissolved with stirring, brought to the boil then sterilized by autoclaving. After cooling the agar medium to 55° C., the imipenem sterilized by filtration is added at a concentration of 1 mg/l. To carry out impregnation according to the present invention of the dry medium Chrom ID CPS3, a test specimen of the dry medium corresponding to the manufacture of one liter of medium is taken, i.e. 26 g, to which test specimen xanthan (20 g) and imipenem […] are added. All the constituents are then mixed together in a Turbula®. The porous supports are then impregnated by the culture media powder produced as described above and sterilized by gamma radiation between 10 and 17 kGy.

[19] = test system: E. coli ATCC 25922; experiment: MIC of imipenem for the strain used; assay type: cell-based; details: Escherichia coli, ATCC25922, as stated in the conclusion
[20] = test system: Pseudomonas aeruginosa ATCC 27853; experiment: Growth (colony count) on ChromID CPS3 with 1 mg/l imipenem, agar medium or impregnated porous support; assay type: cell-based; details: for CFU/ml, ChromID CPS3 with 1 mg/l imipenem: starting concentration 10^3 CFU/ml; for CFU, ChromID CPS3 with 1 mg/l imipenem: starting concentration 10^5 CFU/ml
Experimental: as §2

[21] = ChromID CPS3 agar medium, 1.5 mg/l ciprofloxacin
[22] = MH2 agar medium, 1.5 mg/l ciprofloxacin
[23] = MH2 and ChromID CPS3, agar and porous support, 1.5 mg/l ciprofloxacin
[24] = porous support impregnated with ChromID CPS3, 1.5 mg/l ciprofloxacin
[25] = porous support impregnated with MH2, 1.5 mg/l ciprofloxacin
[26] = all the agar or impregnated media, ciprofloxacin 1.5 g/1 [sic]
[27] = porous support according to the invention

O=C(O)c1cn(C2CC2)c2cc(N3CCNCC3)c(F)cc2c1=O [ciprofloxacin, Ciprofloxacin]
MIC [1]: 8 to 12 µg/mL
growth on ChromID CPS3 Agar medium + 1.5 mg/l Ci [2, 21]: −−
growth on MH2 Agar medium + 1.5 mg/l Ci [2, 22]: −−
growth on agar media and impregnated porous supports with ciprofloxacin (in words) [2, 23]: do not grow
growth on Impregnation of porous support with ChromID CPS3 + 1.5 mg/l Ci [2, 24]: −−
growth on Impregnation of porous support with MH2 + 1.5 mg/l Ci [2, 25]: −−
growth on ChromID CPS3 Agar medium + 1.5 mg/l Ci [3, 21]: −−
growth on MH2 Agar medium + 1.5 mg/l Ci [3, 22]: −−
growth on agar media and impregnated porous supports with ciprofloxacin (in words) [3, 23]: do not grow
growth on Impregnation of porous support with ChromID CPS3 + 1.5 mg/l Ci [3, 24]: −−
growth on Impregnation of porous support with MH2 + 1.5 mg/l Ci [3, 25]: −−
growth on ChromID CPS3 Agar medium + 1.5 mg/l Ci [4, 21]: ++
growth on MH2 Agar medium + 1.5 mg/l Ci [4, 22]: ++
growth on agar media and impregnated porous supports with ciprofloxacin (in words) [4, 26]: grow
growth on Impregnation of porous support with ChromID CPS3 + 1.5 mg/l Ci [4, 24]: ++
growth on Impregnation of porous support with MH2 + 1.5 mg/l Ci [4, 25]: ++
growth on ChromID CPS3 Agar medium + 1.5 mg/l Ci [5, 21]: ++
growth on MH2 Agar medium + 1.5 mg/l Ci [5, 22]: ++
growth on agar media and impregnated porous supports with ciprofloxacin (in words) [5, 26]: grow
growth on Impregnation of porous support with ChromID CPS3 + 1.5 mg/l Ci [5, 24]: ++
growth on Impregnation of porous support with MH2 + 1.5 mg/l Ci [5, 25]: ++
growth on ChromID CPS3 Agar medium + 1.5 mg/l Ci [6, 21]: −−
growth on MH2 Agar medium + 1.5 mg/l Ci [6, 22]: −−
growth on agar media and impregnated porous supports with ciprofloxacin (in words) [6, 23]: do not grow
growth on Impregnation of porous support with ChromID CPS3 + 1.5 mg/l Ci [6, 24]: −−
growth on Impregnation of porous support with MH2 + 1.5 mg/l Ci [6, 25]: −−
growth on ChromID CPS3 Agar medium + 1.5 mg/l Ci [7, 21]: −−
growth on MH2 Agar medium + 1.5 mg/l Ci [7, 22]: −−
growth on agar media and impregnated porous supports with ciprofloxacin (in words) [7, 23]: do not grow
growth on Impregnation of porous support with ChromID CPS3 + 1.5 mg/l Ci [7, 24]: −−
growth on Impregnation of porous support with MH2 + 1.5 mg/l Ci [7, 25]: −−
growth on ChromID CPS3 Agar medium + 1.5 mg/l Ci [8, 21]: ++
growth on MH2 Agar medium + 1.5 mg/l Ci [8, 22]: ++
growth on agar media and impregnated porous supports with ciprofloxacin (in words) [8, 26]: grow
growth on Impregnation of porous support with ChromID CPS3 + 1.5 mg/l Ci [8, 24]: ++
growth on Impregnation of porous support with MH2 + 1.5 mg/l Ci [8, 25]: ++
growth on ChromID CPS3 Agar medium + 1.5 mg/l Ci [9, 21]: −−
growth on MH2 Agar medium + 1.5 mg/l Ci [9, 22]: −−
growth on agar media and impregnated porous supports with ciprofloxacin (in words) [9, 23]: do not grow
growth on Impregnation of porous support with ChromID CPS3 + 1.5 mg/l Ci [9, 24]: −−
growth on Impregnation of porous support with MH2 + 1.5 mg/l Ci [9, 25]: −−
MIC [10]: >32 µg/mL
MIC [11]: 0.25 µg/mL
MIC [12]: 6 to 8 µg/mL
MIC [13]: 0.38 to 0.5 µg/mL
MIC [14]: < 1.5 µg/mL
MIC [15]: less than 1.5 mg/l
MIC ([15]; listed as Ci): 0.25 µg/mL
MIC [16]: less than 1.5 mg/l
MIC ([16]; listed as Ci): 0.032 µg/mL

C[C@@H](O)[C@H]1C(=O)N2C(C(=O)O)=C(SCCN=CN)C[C@H]12 [imipenem]
MIC [17]: 2 µg/mL
CFU/ml, ChromID CPS3 with 1 mg/l imipenem ([18]; ChromID CPS3 agar, starting concentration 10^3 CFU/ml): 0 CFU/ml
CFU/ml, ChromID CPS3 with 1 mg/l imipenem ([18]; ChromID CPS3 agar, starting concentration 10^5 CFU/ml): 0 CFU/ml
CFU/ml, ChromID CPS3 with 1 mg/l imipenem ([18]; porous support according to the invention, starting concentration 10^3 CFU/ml): 0 CFU/ml
CFU/ml, ChromID CPS3 with 1 mg/l imipenem ([18]; porous support according to the invention, starting concentration 10^5 CFU/ml): 0 CFU/ml
MIC [19]: 0.12 µg/mL
CFU/ml, ChromID CPS3 with 1 mg/l imipenem ([20]; ChromID CPS3 agar): 677 CFU/ml
CFU, ChromID CPS3 with 1 mg/l imipenem ([20]; ChromID CPS3 agar): ≥300 colonies
CFU/ml, ChromID CPS3 with 1 mg/l imipenem [20, 27]: 453 CFU/ml
CFU, ChromID CPS3 with 1 mg/l imipenem [20, 27]: ≥300 colonies
